Reference: patent US12377060B2, “Methods and compositions for preventing or treating tissue calcification” (Epizon Pharma, Inc., priority 2018, dated 2025)

Legend:
[1] = tested on: ESRD subjects on stable hemodialysis; test: Example 1: contemplated administration of MK-7 and/or MKH2-7 to ESRD subjects on stable hemodialysis, biomarkers of tissue calcification; type: in vivo, human; conditions: 10 mg, 25 mg or 50 mg once daily orally
Procedure: This example describes the administration of MK-7 and/or MKH2-7 to a subject with ESRD and/or on stable hemodialysis. It is contemplated that administration of MK-7 and/or MKH2-7 will result in a change in aortic compliance (via plethysmography), vascular calcification and certain biomarker levels indicative of slowing the progression of, arresting, or reversing tissue calcification.
ESRD subjects on stable hemodialysis orally receive MK-7 and/or MKH2-7 at 10 mg, 25 mg or 50 mg once daily for least 2 weeks, 4 weeks, 6 weeks, 8 weeks, 3 months, 6 months, 1 year, or indefinitely. The dosage form is a 10 mg or 25 mg soft-gel capsule. Two 25 mg capsules are administered once daily to the 50 mg dosage cohort.
Coronary arterial calcium scores (CAC) are used to estimate the extent of calcification of thoracic arteries. A high CAC score is indicative of calcification, and treatment has the aim of arresting the long term increase in CAC score, or reversing it, or slowing the rate of increase. Aortic plethysmography also is used to measure arterial compliance, which decreases as calcification increases. Pulse wave velocity (PWV) also is measured to assess arterial compliance. The foregoing measures are useful in estimating the utility of treatments intended to prevent, slow the progression of, arrest or reverse vascular calcification. These measurements are used pre- and post-treatment with MK-7 and/or MKH2-7 to assess treatment value.
Further, several biomarkers are assessed to determine the efficacy of MK-7 and/or MKH2-7 at the three dose levels. Exemplary biomarkers include PIVKA-II; uncarboxylated and total Matrix Gla Protein (MGP); uncarboxylated, carboxylated and total osteocalcin protein; uncarboxylated, carboxylated and total Protein C, osteoprotegerin, Fetuin A, and hs-CRP. Blood samples are obtained to measure the biomarkers, most conveniently during patient visits for hemodialysis.
It is contemplated that administration of MK-7 and/or MKH2-7 can result in (i) an increase in […], osteoprotegerin, or Fetuin A, which is indicative of slowing the progression of, arresting or reversing tissue calcification, (ii) a decrease in uncarboxylated MGP, uncarboxylated osteocalcin, and/or uncarboxylated Protein C, which is indicative of slowing the progression of, arresting or reversing tissue calcification, and/or (iii) a decrease in hs-CRP, which is indicative of slowing the progression of, arresting or reversing tissue calcification and/or reduced inflammation.
It is contemplated that, following the daily administration of 10 mg, 25 mg or 50 mg MK-7 and/or MKH2-7, at least one of PIVKA-II, under-carboxylated Matrix Gla Protein (MGP), uncarboxylated osteocalcin protein, uncarboxylated Protein C, osteoprotegerin, Fetuin A, and hs-CRP will show a change indicative of slowing the progression of, arresting or reversing tissue calcification.

[2] = tested on: osteocalcin; conditions: 100-200 μg/d for 4 to 12 weeks; cited from earlier work

Row | Structure (SMILES) | change in Fetuin A [1] | change in hs-CRP [1] | change in osteoprotegerin [1] | change in uncarboxylated MGP [1] | change in uncarboxylated Protein C [1] | change in uncarboxylated osteocalcin [1] | ratio of carboxylated to undercarboxylated osteocalcin [2]
1 | CC(C)=CCC/C(C)=C/CC/C(C)=C/CC/C(C)=C/CC/C(C)=C/CC/C(C)=C/CC/C(C)=C/CC1=C(C)C(=O)c2ccccc2C1=O [MK-7, 2-[(2E,6E,10E,14E,18E,22E)-3,7,11,15,19,23,27-heptamethyloctacosa-2,6,10,14,18,22,26-heptaenyl]-3-methylnaphthalene-1,4-dione] | increase | decrease | increase | decrease | decrease | decrease | significantly and in a dose-dependent manner
2 | CC(C)=CCC/C(C)=C/CC/C(C)=C/CC/C(C)=C/CC/C(C)=C/CC/C(C)=C/CC/C(C)=C/Cc1c(C)c(O)c2ccccc2c1O [MKH2-7, 2-[(2E,6E,10E,14E,18E,22E)-3,7,11,15,19,23,27-heptamethyloctacosa-2,6,10,14,18,22,26-heptaenyl]-3-methylnaphthalene-1,4-diol] | increase | decrease | increase | decrease | decrease | decrease | 
